Measurements from paper PMC3113660 (Journal of medicinal chemistry, 2010).
Read-outs that look alike come from different tables or passages of the source.

Tests used:
[1] = tested on: Leishmania donovani (MHOM/SD/62/1S-CL2D) axenic amastigotes; assay: Antileishmanial assay; type: cell-based; settings: for activity against L. donovani (in words): in vitro, axenic amastigotes
[2] = tested on: Plasmodium falciparum (K1, resistant to chloroquine); assay: In vitro growth inhibition assay of P. falciparum; type: cell-based; settings: for IC50: Plasmodium falciparum
[3] = tested on: T. brucei rhodesiense STIB900; type: in vivo, mice; settings: number of mice that survive and are parasite free for 60 days
[4] = tested on: Trypanosoma brucei rhodesiense (STIB900); assay: In vitro growth inhibition assay of T. brucei rhodesiense; type: cell-based; settings: for SIT, selectivity index for T. brucei rhodesiense: ratio IC50 (L6)/IC50 (T. brucei rhodesiense)
[5] = tested on: L6 rat myoblast cells; assay: In vitro cytotoxicity assay; type: cell-based; settings: L6 cells; relative to 5,5′-disubstituted analogue 1
[6] = tested on: P. berghei; assay: P. berghei mouse model; type: in vivo; settings: subcutaneously at 30 mg/kg daily for four days; data not shown
[7] = In vitro cytotoxicity assay; type: cell-based, rat; settings: rat
[8] = tested on: P. berghei; settings: mice; cited from earlier work
[9] = K1, read-out: antiplasmodial IC50, P. falciparum, in vitro

Cl.Cl.N=C(N)c1cccc(-c2cn(-c3cccc(C(=N)N)c3)nn2)c1 [Compound 1, 1,4-Bis(3-amidinophenyl)-1H-1,2,3-triazole Dihydrochloride]
activity against L. donovani (in words) [1]: active
IC50 [2, 9]: < 58 nM
cures ([3]; 4 × 5 mg/kg ip): no activity

COc1ccc(C2=NCCN2)cc1-c1cn(-c2cccc(C3=NCCN3)c2)nn1.Cl.Cl [Compound 9, 4-[5-(4,5-Dihydro-1H-imidazol-2-yl)-2-methoxyphenyl]-1-[3-(4,5-dihydro-1H-imidazol-2-yl)phenyl]-1H-1,2,3-triazole Dihydrochloride]
activity against L. donovani (in words) [1]: active
IC50 [2, 9]: < 58 nM
fold more active against P. falciparum ([2]; relative to diimidazoline 3): 26 fold
SIT, selectivity index for T. brucei rhodesiense [4]: >29333
times as active against T. brucei rhodesiense ([4]; relative to unsubstituted analogue 3): ~2350 times
cures ([3]; 4 × 1 mg/kg ip): no cures

Cl.Cl.N=C(N)c1cccc(-n2cc(-c3cc(C(=N)N)ccc3O)nn2)c1 [Compound 13, 4-(5-Amidino-2-hydroxyphenyl)-1-(3-amidinophenyl)-1H-1,2,3-triazole Dihydrochloride]
activity against L. donovani (in words) [1]: active
IC50 [2, 9]: < 58 nM
fold less active against T. brucei rhodesiense ([4]; relative to diamidine 1): 2 fold

Cl.Cl.N=C(N)c1ccc(-n2cc(-c3cccc(C(=N)N)c3)nn2)cc1 [Compound 16, 1-(4-Amidinophenyl)-4-(3-amidinophenyl)-1H-1,2,3-triazole Dihydrochloride]
activity against L. donovani (in words) [1]: active
fold increased cytotoxicity [5]: ~25 fold
cures ([3]; 4 × 5 mg/kg ip): curing one out of four mice

COc1cc(C(=N)N)ccc1-n1cc(-c2cccc(C(=N)N)c2)nn1.Cl.Cl [Compound 19, 1-(4-Amidino-2-methoxyphenyl)-4-(3-amidinophenyl)-1H-1,2,3-triazole Dihydrochloride]
activity against L. donovani (in words) [1]: active
IC50 [2, 9]: < 58 nM
SIT, selectivity index for T. brucei rhodesiense [4]: >17455

COc1ccc(C(=N)N)cc1-c1cn(-c2ccc(C(=N)N)cc2)nn1.Cl.Cl [Compound 22, 4-(5-Amidino-2-methoxyphenyl)-1-(4-amidinophenyl)-1H-1,2,3-triazole Dihydrochloride]
activity against L. donovani (in words) [1]: active
IC50 [2, 9]: < 58 nM
SIT, selectivity index for T. brucei rhodesiense [4]: >24750
cures ([3]; 4 × 5 mg/kg ip): curing at least two out of four animals

Cl.Cl.N=C(N)c1ccc(-n2cc(-c3cc(C(=N)N)ccc3O)nn2)cc1 [Compound 28, 4-(5-Amidino-2-hydroxyphenyl)-1-(4-amidinophenyl)-1H-1,2,3-triazole Dihydrochloride]
activity against L. donovani (in words) [1]: active
IC50 [2, 9]: < 58 nM

Cl.Cl.Oc1ccc(C2=NCCN2)cc1-c1cn(-c2ccc(C3=NCCN3)cc2)nn1 [Compound 30, 4-[5-(4,5-Dihydro-1H-imidazol-2-yl)-2-hydroxyphenyl]-1-[4-(4,5-dihydro-1H-imidazol-2-yl)phenyl]-1H-1,2,3-triazole Dihydrochloride]
activity against L. donovani (in words) [1]: active
IC50 [2, 9]: < 58 nM

Cl.Cl.N=C(N)c1ccc(-c2cn(-c3ccc(C(=N)N)cc3)nn2)cc1 [Compound 46, 1,4-Bis(4-amidinophenyl)-1H-1,2,3-triazole Dihydrochloride]
IC50 [2, 9]: < 58 nM
fold increased cytotoxicity [5]: ~25 fold
cures ([3]; 4 × 0.5 mg/kg ip): no cures

Cl.Cl.Oc1cc(C2=NCCN2)ccc1-c1cn(-c2ccc(C3=NCCN3)cc2)nn1 [Compound 60, 4-[4-(4,5-Dihydro-1H-imidazol-2-yl)-2-hydroxyphenyl]-1-[4-(4,5-dihydro-1H-imidazol-2-yl)phenyl]-1H-1,2,3-triazole Dihydrochloride]
times as active against P. falciparum ([2]; relative to diimidazoline 48): 3 times
times greater antiplasmodial selectivity index SIP ([2]; relative to pentamidine): ~400 times
effect on blood parasite count [6]: did not reduce the blood parasite count

C[C@@H]1CC[C@H]2[C@@H](C)C(=O)O[C@@H]3O[C@@]4(C)CC[C@@H]1[C@]32OO4 [artemisinin, reference compound]
SIP, selectivity index for P. falciparum ([2]; ratio IC50 (L6)/IC50 (P. falciparum)): 75000
IC50 at 70 h [7]: 450000 nM

CCN(CC)CCCC(C)Nc1ccnc2cc(Cl)ccc12 (stereo not shown) [chloroquine, reference compound]
IC50 ([2]; K1, read-out: P. falciparum IC50): 124 nM
IC50 at 70 h [7]: 117000 nM

N=C(N)c1ccc(-c2ccc(-c3ccc(C(=N)N)cc3)o2)cc1 [furamidine, 2,5-bis(4-amidinophenyl)furan]
activity against trophozoite-induced P. berghei infection [8]: inactive

Nc1nc(N)nc(Nc2ccc([As]3SCC(CO)S3)cc2)n1 (stereo not shown) [melarsoprol]
IC50 at 70 h [7]: 7780 nM

N=C(N)c1ccc(OCCCCCOc2ccc(C(=N)N)cc2)cc1 [pentamidine, 1,5-bis(4-amidinophenoxy)pentane, reference compound]
IC50 ([1]; Leishmania donovani, read-out: L. donovani IC50): 1800 nM

COc1cc([C@@H]2c3cc4c(cc3[C@H](O)[C@H]3COC(=O)[C@H]23)OCO4)cc(OC)c1OC [podophyllotoxin]
IC50 at 70 h [7]: 20 nM
